This note sets out measurements from patent publication US8912386B2, “Transgenic pig model of cystic fibrosis” (University of Iowa Research Foundation, priority 2007, dated 2014).

Read-outs that look alike come from different tables or passages of the source.

In one assay the test system is CFTR^+/+ epithelia. Description: Short-circuit current (Isc) response to increasing cAMP agonist concentrations, Ussing chambers, wild-type epithelia. Type of assay: cell-based, pig. The text has this: (§1) These studies were done under conditions of maximal CFTR stimulation. Therefore, we also examined the response to increasing concentrations of forskolin and IBMX (at a fixed ratio of forskolin:IBMX of 1:10) (FIG. 33F,G). The EC50 for CFTR^+/+ epithelia was […]. In contrast, the EC50 for forskolin in CFTR^ΔF508/ΔF508 epithelia was 0.60±0.19
(§2) Because forskolin and IBMX might generate different cellular cAMP concentrations in CFTR^ΔF508/ΔF508 and CFTR^+/+ epithelia, we repeated the experiments with 8-CPT-cAMP, a membrane-permeable cAMP analog (FIG. 33H,I).
(§3) Epithelial tissues were excised from the nasal turbinate and septum, and from trachea through 2nd generation bronchi immediately after animals were euthanized. Tissues and cultured epithelia were studied in modified Ussing chambers. Epithelia were bathed on both surfaces with solution containing (mM): 135 NaCl, 2.4 K2HPO4, 0.6 KH2PO4, 1.2 CaCl2, 1.2 MgCl2, 10 dextrose, 5 HEPES, pH 7.4, at 37° C. and gassed with compressed air. Na-gluconate was substituted for NaCl in […] solutions. Transepithelial voltage (Vt) was maintained at 0 mV to measure short-circuit current (Isc). Transepithelial electrical conductance (Gt) was measured by intermittently clamping Vt to +5 and/or −5 mV.
(§4) A standard protocol was the following. 1) Measurements under basal conditions. 2) 100 μM apical amiloride to inhibit ENaC Na^+ channels. […]

Assay [1] relates to CFTR^ΔF508/ΔF508 epithelia. The experiment in a line: Short-circuit current (Isc) response to increasing cAMP agonist concentrations, Ussing chambers, ΔF508 epithelia. Type of assay: cell-based, pig.
Excerpt: as §1, §2, §3, §4

In the next assay the test system is nasal epithelia. Description: In vivo nasal transepithelial voltage (Vt) in newborn piglets. Also on record: species or system pig. To be noted: sequential perfusion, amiloride 100 μM, ATP 100 μM, GlyH-101 100 μM.
For assay [2], the system named is excised trachea epithelia. The experiment in a line: Electrophysiology of freshly excised tracheal epithelia in Ussing chambers. The conditions noted are these: 100 μM apical. Type of assay: cell-based, pig.
Excerpt: Values of transepithelial electrical conductance (Gt) were large, probably because of “edge damage” associated with clamping epithelia in Ussing chambers (Helman et al., Am. J. Physiol. Cell Physiol. 225(4):972-977, 1973) (compare with cultured epithelia in FIG. 31, 32).
as §3
A standard protocol was the following. 1) Measurements under basal conditions. 2) 100 μM apical amiloride to inhibit ENaC Na^+ channels. 3) 100 μM apical DIDS (4,4-diisothiocyano stilbene-2,2-disulfonic acid) to inhibit most anion channels other than CFTR. 4) 10 μM forskolin and 100 μM IBMX ([…]) to increase cellular levels of cAMP leading to phosphorylation and activation of CFTR. […]

Protocol for nasal epithelia: The transepithelial voltage (Vt) across the nasal epithelium was measured using previously described methods (Zabner et al., J. Clin. Invest. 97:1504, 1996; Standaert et al., Pediatr. Pulmonol. 37:385, 2004) under propofol anesthesia with the animal spontaneously breathing. The reference electrode was a small Ringer's solution-filled catheter inserted into the leg muscle (25 g needle). The exploring electrode was a 6 french foley catheter filled with Ringer's solution (148 mM NaCl, 2.4 mM KH2PO4, 0.4 mM K2PO4, 2.25 mM CaCl2, 1.2 mM MgCl2) inserted 4 cm into the nasal cavity, and the nasal mucosa was perfused at a rate of 5 ml/min using Ringer's solution to obtain baseline Vt. Subsequent perfusion solutions included: Ringer's solution containing 100 μM amiloride; Cl^−-free Ringer's solution containing gluconate substituted for CF plus amiloride; Cl^−-free Ringer's solution containing amiloride plus 10 μM isoproterenol; Cl^−-free Ringer's solution containing amiloride, isoproterenol, plus 100 μM ATP; Cl^−-free Ringer's solution containing amiloride, isoproterenol, ATP, plus 100 μM GlyH-101. Voltage was measured with a voltmeter connected to a strip chart recorder. Each solution was perfused for 3-5 minutes. Following completion of the measurements, the epithelium was disrupted by brushing and Vt measured again to determine the zero value of Vt.

For the compound `Nc1ncnc2c1nc(Sc1ccc(Cl)cc1)n2[C@@H]1O[C@@H]2COP(=O)(O)O[C@H]2[C@H]1O` [8-CPT-cAMP], the EC50 in the assay with CFTR^+/+ epithelia (wild-type epithelia, read-out: EC50 (change in Isc with increasing 8-CPT-cAMP)) stood at 8 ± 1.3 µM; in assay [1] (read-out: EC50 (change in Isc with increasing 8-CPT-cAMP)) it was 65.2 ± 17.3 µM.

Take `Nc1ncnc2c1ncn2[C@@H]1O[C@H](COP(=O)(O)OP(=O)(O)OP(=O)(O)O)[C@@H](O)[C@H]1O` [ATP]: the “Effect on nasal transepithelial voltage (Vt)” value (“Effect … (Vt)” below) in the assay with nasal epithelia is given as “further hyperpolarized Vt”.

For the compound `O=C(CNc1ccc2ccccc2c1)N/N=C/c1cc(Br)c(O)c(Br)c1O` [GlyH-101], the “Effect … (Vt)” value with nasal epithelia was “depolarized Vt in controls, but not CFTR−/− piglets”.

As to `C=C[C@@]1(C)CC(=O)[C@]2(O)[C@@]3(C)[C@@H](O)CCC(C)(C)[C@@H]3[C@H](O)[C@H](OC(C)=O)[C@@]2(C)O1` [forskolin], the EC50 in the assay with CFTR^+/+ epithelia (Sus scrofa, CFTR^+/+ epithelia, increasing forskolin and IBMX at fixed ratio forskolin:IBMX 1:10, read-out: EC50 for forskolin (change in Isc)) was 0.07 ± 0.01 µM; in assay [1] (Sus scrofa, increasing forskolin and IBMX at fixed ratio forskolin:IBMX 1:10, read-out: EC50 for forskolin (change in Isc)) it was 0.6 ± 0.19 µM.

Consider `N=C(N)NC(=O)c1nc(Cl)c(N)nc1N` [Amiloride, amiloride], for which the “Effect … (Vt)” value in the assay with nasal epithelia is “reduced Vt in all genotypes”. Besides, in assay [2] (CFTR^ΔF508/ΔF508 vs CFTR^+/+), the “Effect on transepithelial conductance Gt (ΔGtamiloride)” value is given as “reduced Gt (ΔGtamiloride) to a similar extent”. Further, in assay [2] (CFTR^ΔF508/ΔF508 vs wild-type), the “Effect on Vt and Isc (ΔVtamiloride, ΔIscamiloride)” value was “reduced Vt (ΔVtamiloride) and Isc (ΔIscamiloride) in CFTR^ΔF508/ΔF508 more than in wild-type epithelia”.

As usually defined, the EC50 is the concentration giving half of the maximal effect.
